Results reported in ChEMBL document CHEMBL1201862, “PubChem BioAssay data set” (2004).
The source made the active and inactive calls.

What was measured:
SUMO-activating enzyme = SUMO-activating enzyme (Homo sapiens, UniProt Q9UBT2); assay: blockers of UBC9-mediated SUMO conjugation – biochemical, AlphaScreen, SUMOylation inhibitor project, confirmation (AID 2018); assay type: functional
[1] = target: T1, Tyrosine-protein phosphatase non-receptor type 7 (Homo sapiens, UniProt P35236); assay type: functional
T1 sequence (P35236 whole entry): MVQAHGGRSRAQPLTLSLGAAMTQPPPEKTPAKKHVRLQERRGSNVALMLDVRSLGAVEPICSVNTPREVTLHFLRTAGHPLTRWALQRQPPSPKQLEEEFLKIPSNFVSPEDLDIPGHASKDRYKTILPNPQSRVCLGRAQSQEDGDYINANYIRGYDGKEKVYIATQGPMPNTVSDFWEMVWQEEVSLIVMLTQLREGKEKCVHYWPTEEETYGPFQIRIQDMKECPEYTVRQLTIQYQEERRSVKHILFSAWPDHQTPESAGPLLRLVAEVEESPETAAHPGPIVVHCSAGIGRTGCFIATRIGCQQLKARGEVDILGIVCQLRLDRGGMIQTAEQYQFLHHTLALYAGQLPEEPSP

[2] = target: T2, Tyrosine-protein phosphatase non-receptor type 22 (Homo sapiens, UniProt Q9Y2R2); assay type: functional
T2 sequence (Q9Y2R2 whole entry): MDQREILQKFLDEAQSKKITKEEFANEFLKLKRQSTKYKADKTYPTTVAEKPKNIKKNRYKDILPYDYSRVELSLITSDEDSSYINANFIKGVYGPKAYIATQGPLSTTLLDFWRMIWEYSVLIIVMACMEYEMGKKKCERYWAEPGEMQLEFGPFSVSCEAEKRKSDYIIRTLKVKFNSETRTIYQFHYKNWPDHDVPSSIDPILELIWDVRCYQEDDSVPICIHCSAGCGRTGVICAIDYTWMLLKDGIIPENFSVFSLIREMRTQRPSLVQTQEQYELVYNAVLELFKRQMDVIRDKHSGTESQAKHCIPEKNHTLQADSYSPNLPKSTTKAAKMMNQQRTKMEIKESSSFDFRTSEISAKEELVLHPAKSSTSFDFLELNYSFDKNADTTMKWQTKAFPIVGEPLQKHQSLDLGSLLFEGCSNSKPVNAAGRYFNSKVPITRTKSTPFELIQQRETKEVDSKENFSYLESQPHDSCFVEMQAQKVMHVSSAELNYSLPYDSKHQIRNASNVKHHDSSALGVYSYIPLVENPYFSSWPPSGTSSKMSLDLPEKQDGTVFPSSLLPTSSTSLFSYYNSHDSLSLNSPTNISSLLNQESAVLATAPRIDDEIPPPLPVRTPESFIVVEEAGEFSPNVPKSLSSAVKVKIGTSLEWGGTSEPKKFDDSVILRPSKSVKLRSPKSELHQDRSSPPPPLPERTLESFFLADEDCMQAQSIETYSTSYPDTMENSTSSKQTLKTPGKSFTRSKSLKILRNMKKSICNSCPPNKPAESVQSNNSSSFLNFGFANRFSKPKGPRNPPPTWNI

[3] = target: T2, Tyrosine-protein phosphatase non-receptor type 22; assay type: functional; remark: listed apart in the source
[4] = target: T3, Delta-type opioid receptor (Homo sapiens, UniProt P41143); assay: HTS Image-Based Screen for Antagonists of the DOR Receptor. [Related pubchem assays (depositor defined):AID1777, AID1785, AID1786, AID2133]; assay type: functional
[5] = target: T4, Kappa-type opioid receptor (Homo sapiens, UniProt P41145); assay type: functional
[6] = target: T3, Delta-type opioid receptor; assay: HTS Image-Based Screen for Agonists of the DOR Receptor. [Related pubchem assays (depositor defined):AID1777, AID1786, AID2133]; assay type: functional
Protein skinhead-1 = target: T5, Protein skinhead-1 (Caenorhabditis elegans, UniProt P34707); assay type: functional
T5 sequence (P34707 whole entry): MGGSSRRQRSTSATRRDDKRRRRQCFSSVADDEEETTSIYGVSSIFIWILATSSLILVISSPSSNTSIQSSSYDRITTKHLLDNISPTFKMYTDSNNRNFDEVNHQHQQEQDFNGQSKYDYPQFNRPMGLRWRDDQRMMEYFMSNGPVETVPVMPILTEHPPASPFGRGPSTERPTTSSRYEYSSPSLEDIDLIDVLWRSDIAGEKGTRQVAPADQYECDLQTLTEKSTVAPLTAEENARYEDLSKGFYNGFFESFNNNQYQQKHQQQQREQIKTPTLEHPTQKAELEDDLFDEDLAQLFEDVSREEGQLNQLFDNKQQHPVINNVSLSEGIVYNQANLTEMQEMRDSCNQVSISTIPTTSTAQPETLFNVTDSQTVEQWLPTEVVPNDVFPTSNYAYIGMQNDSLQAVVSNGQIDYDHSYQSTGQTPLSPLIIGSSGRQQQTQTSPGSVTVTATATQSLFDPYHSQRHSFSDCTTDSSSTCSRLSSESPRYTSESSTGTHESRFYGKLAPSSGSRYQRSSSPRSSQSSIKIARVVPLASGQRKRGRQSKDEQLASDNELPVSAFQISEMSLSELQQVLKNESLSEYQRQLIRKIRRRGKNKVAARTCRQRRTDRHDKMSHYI

Mu-type opioid receptor = Mu-type opioid receptor (Homo sapiens, UniProt P35372); assay: HTS Image-Based Screen for Agonists of the MOR Receptor. [Related pubchem assays (depositor defined):AID1777, AID1785, AID1786, AID2133]; assay type: functional;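 further: imaging of beta-arrestin GFP recruitment into spots after receptor activation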
Beta-galactosidase = Beta-galactosidase (Escherichia coli, UniProt Q8VNN2); assay type: functional
[7] = target: T6, Short transient receptor potential channel 4 (Mus musculus, UniProt Q9QUQ5); assay: block of DAMGO-driven TRPC4 calcium entry – cell-based, HEK293 TRPC4/mu-opioid, Fluo-4 calcium, dose response (AID 434942); assay type: functional;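 further: potency of inhibitors blocking the TRPC4 calcium response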
T6 sequence (Q9QUQ5 whole entry): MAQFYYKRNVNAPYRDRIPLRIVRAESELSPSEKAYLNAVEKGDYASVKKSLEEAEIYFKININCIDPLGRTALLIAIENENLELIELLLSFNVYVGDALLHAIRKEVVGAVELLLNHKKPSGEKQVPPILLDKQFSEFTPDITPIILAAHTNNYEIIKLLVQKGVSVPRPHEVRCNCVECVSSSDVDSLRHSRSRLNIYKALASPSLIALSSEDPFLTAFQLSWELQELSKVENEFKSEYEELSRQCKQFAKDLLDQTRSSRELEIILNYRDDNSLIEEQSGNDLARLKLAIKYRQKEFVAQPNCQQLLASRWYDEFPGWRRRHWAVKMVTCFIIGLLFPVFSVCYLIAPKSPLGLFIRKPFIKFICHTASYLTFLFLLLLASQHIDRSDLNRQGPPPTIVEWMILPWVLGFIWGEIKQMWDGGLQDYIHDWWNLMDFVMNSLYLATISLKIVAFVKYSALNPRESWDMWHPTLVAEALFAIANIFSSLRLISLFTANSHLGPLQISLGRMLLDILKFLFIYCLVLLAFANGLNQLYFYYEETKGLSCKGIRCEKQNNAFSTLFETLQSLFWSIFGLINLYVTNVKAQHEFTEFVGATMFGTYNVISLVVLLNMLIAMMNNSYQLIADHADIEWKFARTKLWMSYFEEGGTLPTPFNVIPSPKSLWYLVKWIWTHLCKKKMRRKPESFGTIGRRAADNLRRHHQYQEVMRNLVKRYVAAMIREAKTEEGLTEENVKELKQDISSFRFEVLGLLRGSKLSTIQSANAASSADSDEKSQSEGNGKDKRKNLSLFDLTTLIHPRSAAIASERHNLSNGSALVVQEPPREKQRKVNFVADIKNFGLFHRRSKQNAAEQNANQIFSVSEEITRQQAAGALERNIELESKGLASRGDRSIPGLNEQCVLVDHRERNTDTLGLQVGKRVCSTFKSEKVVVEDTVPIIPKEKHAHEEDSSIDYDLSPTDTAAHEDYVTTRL

[8] = target: T4, Kappa-type opioid receptor; assay type: functional; remark: listed apart in the source
H4 = assay: Luminescence Cell-Based Dose Response HTS to Identify Activators of 5'UTR Stem-Loop Driven Prion Protein mRNA Translation in H4 Neuroglioblastoma Cells. [Related pubchem assays: 1829 (Project Summary), 1814 (Primary HTS)]; assay type: functional; conditions: Homo sapiens
[9] = Luminescence Cell-Based Dose Confirmation HTS to Identify Activators of 5'UTR Stem-Loop Driven Alpha-Synuclein mRNA Translation in H4 Neuroglioblastoma Cells. [Related pubchem assays: 1829 (Project Summary), 1814 (Primary HTS)]; assay type: functional
[10] = system: Streptococcus sp. 'group A'; assay: Streptococcus pyogenes SK(-)GAS viability under kanamycin – luminescence, BacTiterGlo, confirmation, counter-screen for streptokinase expression inhibitor project, dose response (AID 1900); assay type: functional, organism-based
Streptokinase A = target: T7, Streptokinase A (Streptococcus pyogenes serotype M1, UniProt P10520); assay: viability-normalized secreted streptokinase activity reduction – plasminogen activation absorbance, OD405, dose response (AID 1914); assay type: functional, Streptococcus pyogenes M1 GAS;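 further: secreted streptokinase activity via plasminogen activation per viability signal from cell pellet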
T7 sequence (P10520 whole entry): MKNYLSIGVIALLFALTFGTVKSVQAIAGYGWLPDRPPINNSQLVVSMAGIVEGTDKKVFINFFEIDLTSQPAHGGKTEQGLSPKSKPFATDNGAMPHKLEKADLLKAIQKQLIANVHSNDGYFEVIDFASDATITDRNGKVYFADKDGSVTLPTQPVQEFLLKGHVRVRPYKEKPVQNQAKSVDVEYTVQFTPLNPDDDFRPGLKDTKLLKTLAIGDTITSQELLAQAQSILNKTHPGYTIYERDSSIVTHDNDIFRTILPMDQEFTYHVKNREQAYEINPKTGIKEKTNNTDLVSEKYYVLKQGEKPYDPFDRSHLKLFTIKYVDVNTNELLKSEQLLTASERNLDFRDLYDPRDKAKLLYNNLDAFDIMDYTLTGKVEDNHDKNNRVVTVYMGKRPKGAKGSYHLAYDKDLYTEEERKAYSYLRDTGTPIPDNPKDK

[11] = Luminescence Cell-Based Dose Response HTS to Identify Activators of Luciferase Translation or Activity in H4 […] Cells. [Related pubchem assays: 1829 (Project Summary), 1814 (Primary HTS)]; assay type: functional
[12] = target: Mitogen-activated protein kinase 10 (Homo sapiens, UniProt P53779); assay: Dose response biochemical screening assay for inhibitors of c-Jun N-Terminal Kinase 3 (JNK3). [Related pubchem assays: 746 ]
[13] = target: T8, Dual specificity protein phosphatase 6 (Rattus norvegicus, UniProt Q64346); assay: inhibition of rat DUSP6 enzyme activity – biochemical, in vitro, primary screen (AID 425)
T8 sequence (Q64346 whole entry): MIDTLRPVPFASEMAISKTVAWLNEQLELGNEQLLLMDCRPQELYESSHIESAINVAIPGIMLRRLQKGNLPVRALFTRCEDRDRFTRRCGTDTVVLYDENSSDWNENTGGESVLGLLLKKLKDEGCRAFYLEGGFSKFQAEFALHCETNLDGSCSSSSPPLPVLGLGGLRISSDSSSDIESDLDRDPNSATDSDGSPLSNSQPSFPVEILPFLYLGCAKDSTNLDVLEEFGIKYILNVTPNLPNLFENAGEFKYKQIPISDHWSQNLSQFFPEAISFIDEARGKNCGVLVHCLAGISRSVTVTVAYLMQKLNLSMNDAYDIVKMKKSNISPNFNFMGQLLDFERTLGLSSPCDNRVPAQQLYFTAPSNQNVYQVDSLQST

[14] = fluconazole-exposed Candida albicans growth modulators – fluorescence, retest, confirmation (AID 2467); assay type: functional, cell-based
[15] = NIH-3T3 fibroblast cytotoxicity, dose response, cytotoxicity control, cell-based, fluorescence, Alamar Blue, secondary assay (AID 2327); assay type: functional;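 further: NIH-3T3 mouse fibroblasts cultured with fluconazole at 8 µg/mL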
Streptococcus = assay: GAS UMAA2166 growth inhibition – luminescence, BacTiterGlo, counter-screen for streptokinase expression inhibitor project, dose response (AID 1915); assay type: functional, organism-based;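 further: potency for reduction of bacterial viability or growth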
[16] = target: T9, Calpain-2 catalytic subunit (Sus scrofa, UniProt P43367); assay: m-calpain protease blockers, concentration series – biochemical, fluorogenic peptide substrate, dose response (AID 1420); assay type: functional
T9 sequence (P43367 whole entry): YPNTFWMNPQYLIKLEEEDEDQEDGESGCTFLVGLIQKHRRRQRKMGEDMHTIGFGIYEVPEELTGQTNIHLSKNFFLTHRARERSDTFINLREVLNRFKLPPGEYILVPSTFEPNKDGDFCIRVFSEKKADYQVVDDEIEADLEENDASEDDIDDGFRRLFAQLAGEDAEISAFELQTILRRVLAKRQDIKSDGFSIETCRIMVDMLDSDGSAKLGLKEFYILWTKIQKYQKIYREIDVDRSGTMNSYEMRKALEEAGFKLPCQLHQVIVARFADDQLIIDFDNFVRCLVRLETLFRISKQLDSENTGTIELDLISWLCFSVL

T3 sequence (P41143 whole entry): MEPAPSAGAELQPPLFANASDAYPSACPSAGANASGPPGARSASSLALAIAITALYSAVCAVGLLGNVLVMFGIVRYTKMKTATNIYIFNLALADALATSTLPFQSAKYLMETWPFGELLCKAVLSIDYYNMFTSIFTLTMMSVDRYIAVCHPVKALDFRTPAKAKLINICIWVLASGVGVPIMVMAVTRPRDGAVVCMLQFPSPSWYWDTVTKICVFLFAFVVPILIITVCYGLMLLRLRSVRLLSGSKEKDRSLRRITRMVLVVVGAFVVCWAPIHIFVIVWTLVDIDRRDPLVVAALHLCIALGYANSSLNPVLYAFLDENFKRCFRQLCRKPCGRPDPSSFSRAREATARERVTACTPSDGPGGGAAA
T4 sequence (P41145 whole entry): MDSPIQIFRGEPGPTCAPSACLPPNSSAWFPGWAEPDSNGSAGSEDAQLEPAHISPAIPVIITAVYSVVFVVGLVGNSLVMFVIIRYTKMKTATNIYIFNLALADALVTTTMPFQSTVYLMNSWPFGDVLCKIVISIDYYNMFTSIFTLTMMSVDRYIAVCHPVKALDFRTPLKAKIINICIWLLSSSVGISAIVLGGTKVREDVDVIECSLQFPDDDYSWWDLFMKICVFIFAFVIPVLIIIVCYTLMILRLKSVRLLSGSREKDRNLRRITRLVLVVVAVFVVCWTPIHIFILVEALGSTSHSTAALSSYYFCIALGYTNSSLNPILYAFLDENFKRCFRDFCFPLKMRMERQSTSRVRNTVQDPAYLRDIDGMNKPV
SUMO-activating enzyme, sequence (Q9UBE0 whole entry): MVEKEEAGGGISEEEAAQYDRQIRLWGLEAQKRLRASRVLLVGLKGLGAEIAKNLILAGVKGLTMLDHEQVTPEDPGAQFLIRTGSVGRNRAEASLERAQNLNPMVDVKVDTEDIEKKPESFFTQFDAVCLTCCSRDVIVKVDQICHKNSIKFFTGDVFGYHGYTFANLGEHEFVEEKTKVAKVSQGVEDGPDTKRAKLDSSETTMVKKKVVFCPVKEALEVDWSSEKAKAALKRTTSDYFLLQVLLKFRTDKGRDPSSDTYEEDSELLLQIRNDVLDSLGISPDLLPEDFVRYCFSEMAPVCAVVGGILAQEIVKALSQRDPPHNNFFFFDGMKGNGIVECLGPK
SUMO-activating enzyme, sequence (Q9UBT2 whole entry): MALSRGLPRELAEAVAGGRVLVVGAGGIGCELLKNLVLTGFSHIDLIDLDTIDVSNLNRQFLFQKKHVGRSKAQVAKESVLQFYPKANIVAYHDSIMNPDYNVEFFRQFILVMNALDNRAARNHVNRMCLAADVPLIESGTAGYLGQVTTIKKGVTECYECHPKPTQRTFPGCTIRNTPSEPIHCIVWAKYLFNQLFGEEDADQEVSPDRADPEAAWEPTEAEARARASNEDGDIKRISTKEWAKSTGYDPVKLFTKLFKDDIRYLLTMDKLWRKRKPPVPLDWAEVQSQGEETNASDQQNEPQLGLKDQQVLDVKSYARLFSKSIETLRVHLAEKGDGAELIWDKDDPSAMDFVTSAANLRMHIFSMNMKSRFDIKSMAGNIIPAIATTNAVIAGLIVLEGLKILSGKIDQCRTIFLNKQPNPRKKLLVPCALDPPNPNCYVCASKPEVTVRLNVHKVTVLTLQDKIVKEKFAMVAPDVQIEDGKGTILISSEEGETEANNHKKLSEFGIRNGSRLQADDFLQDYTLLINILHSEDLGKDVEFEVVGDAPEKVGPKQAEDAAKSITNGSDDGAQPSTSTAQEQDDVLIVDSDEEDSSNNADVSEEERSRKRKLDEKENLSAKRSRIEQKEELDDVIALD
Mitogen-activated protein kinase 10, sequence (P53779 whole entry): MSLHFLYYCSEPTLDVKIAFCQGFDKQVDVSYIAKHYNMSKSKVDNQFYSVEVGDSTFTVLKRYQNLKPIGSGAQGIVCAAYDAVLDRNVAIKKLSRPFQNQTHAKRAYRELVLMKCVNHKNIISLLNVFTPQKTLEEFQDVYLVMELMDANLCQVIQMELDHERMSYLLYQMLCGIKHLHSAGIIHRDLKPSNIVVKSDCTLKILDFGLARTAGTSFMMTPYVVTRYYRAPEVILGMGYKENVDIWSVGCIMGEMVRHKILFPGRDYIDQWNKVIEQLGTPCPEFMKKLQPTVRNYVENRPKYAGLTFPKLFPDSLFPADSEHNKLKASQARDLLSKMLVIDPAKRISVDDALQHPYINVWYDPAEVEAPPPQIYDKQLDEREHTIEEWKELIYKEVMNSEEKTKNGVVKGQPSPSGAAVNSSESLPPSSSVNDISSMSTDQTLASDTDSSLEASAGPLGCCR
Beta-galactosidase, sequence (Q8VNN2 whole entry): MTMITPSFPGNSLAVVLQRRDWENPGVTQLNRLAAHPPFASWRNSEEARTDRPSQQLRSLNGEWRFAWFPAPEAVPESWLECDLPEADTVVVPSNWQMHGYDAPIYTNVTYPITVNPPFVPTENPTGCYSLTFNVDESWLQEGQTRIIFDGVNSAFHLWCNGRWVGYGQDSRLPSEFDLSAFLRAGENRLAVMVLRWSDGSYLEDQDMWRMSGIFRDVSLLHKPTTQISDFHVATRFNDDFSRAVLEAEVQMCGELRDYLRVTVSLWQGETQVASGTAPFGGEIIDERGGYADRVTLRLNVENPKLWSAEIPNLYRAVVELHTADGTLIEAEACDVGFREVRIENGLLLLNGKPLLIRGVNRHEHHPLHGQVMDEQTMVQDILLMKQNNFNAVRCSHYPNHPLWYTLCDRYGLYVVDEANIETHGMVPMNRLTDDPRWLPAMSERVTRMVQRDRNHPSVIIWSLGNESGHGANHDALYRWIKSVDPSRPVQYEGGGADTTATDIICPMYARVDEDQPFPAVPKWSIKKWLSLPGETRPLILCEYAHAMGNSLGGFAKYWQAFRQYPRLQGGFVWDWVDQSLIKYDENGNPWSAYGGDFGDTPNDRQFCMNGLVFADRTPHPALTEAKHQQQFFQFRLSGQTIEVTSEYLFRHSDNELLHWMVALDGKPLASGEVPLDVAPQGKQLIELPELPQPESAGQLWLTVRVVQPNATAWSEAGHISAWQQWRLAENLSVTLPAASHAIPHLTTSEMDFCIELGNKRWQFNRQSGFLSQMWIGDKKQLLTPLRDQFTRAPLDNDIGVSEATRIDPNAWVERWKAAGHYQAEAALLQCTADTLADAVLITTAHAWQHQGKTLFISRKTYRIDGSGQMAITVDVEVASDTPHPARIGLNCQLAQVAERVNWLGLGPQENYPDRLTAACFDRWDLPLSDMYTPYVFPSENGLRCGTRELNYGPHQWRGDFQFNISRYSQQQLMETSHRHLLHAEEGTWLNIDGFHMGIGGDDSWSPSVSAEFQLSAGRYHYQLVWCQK
Mu-type opioid receptor, sequence (P35372 whole entry): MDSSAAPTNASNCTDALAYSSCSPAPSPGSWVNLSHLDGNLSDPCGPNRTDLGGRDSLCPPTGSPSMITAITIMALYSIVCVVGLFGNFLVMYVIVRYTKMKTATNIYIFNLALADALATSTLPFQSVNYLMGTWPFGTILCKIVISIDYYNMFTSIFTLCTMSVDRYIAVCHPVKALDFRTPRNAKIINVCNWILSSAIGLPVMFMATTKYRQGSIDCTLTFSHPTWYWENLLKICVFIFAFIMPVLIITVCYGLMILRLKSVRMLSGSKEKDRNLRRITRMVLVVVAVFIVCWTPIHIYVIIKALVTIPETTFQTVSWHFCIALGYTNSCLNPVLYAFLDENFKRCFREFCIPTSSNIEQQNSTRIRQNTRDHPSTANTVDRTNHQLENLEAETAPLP

NC(=O)CC(NC(=O)Cc1ccc(Br)cc1)c1ccc(NCCc2ccccc2F)c([N+](=O)[O-])c1 (stereo unspecified)
IC50 (SUMO-activating enzyme): 78.2 µM (active)

CC(C)Cc1nc(S(=O)(=O)c2ccc(Cl)cc2)c(N2CCOCC2)o1
IC50 [1]: > 79.4 µM (inactive)
IC50 [2]: > 79.4 µM (inactive)
IC50 [3]: > 79.4 µM (inactive)

CCOc1cc(CNC2CCCC2)cc(Cl)c1OCc1ccccc1
IC50 [4]: > 32 µM (inactive)
IC50 [5]: 7.88 µM (active)
EC50 [6]: > 32 µM (inactive)
IC50 (Protein skinhead-1): < 3.13 µM (active)
EC50 (Mu-type opioid receptor): > 32 µM (inactive)
EC50 (Beta-galactosidase): > 31.5 µM (inactive)
EC50 [7]: 4.22 µM (active)
IC50 [8]: 2.57 µM

CCn1nc(-c2ccccc2)nc2c(=O)n(C)c(=O)nc1-2
IC50 [1]: 8.91 µM (active)
EC50 (H4): > 120 µM (not active)
EC50 [9]: > 120 µM (not active)
EC50 [10]: 2.54 µM (active)
IC50 [2]: 13.2 µM (active)
EC50 (Streptokinase A): > 150 µM (not active)
IC50 [3]: 10.4 µM (active)
EC50 [11]: > 30 µM (not active)
IC50 [12]: 36.3 µM (not active)
IC50 [13]: 0.239 µM (active)
EC50 [14]: 0.442 µM (active)
EC50 [15]: 1.8 µM (inconclusive)
EC50 (Streptococcus): 9.43 µM (active)
IC50 [16]: 6.11 µM (not active)
